From patent publication US20020004209A1, “Use of SLIM3 for binding to molecules” (Schering Aktiengesellschaft Patents, priority 1999, published 2002)

Target: T1, androgen receptor (Homo sapiens, UniProt P10275)
T1 construct: expressed in transfected cells; host or cells: 293 cells
T1 sequence (P10275 1-920): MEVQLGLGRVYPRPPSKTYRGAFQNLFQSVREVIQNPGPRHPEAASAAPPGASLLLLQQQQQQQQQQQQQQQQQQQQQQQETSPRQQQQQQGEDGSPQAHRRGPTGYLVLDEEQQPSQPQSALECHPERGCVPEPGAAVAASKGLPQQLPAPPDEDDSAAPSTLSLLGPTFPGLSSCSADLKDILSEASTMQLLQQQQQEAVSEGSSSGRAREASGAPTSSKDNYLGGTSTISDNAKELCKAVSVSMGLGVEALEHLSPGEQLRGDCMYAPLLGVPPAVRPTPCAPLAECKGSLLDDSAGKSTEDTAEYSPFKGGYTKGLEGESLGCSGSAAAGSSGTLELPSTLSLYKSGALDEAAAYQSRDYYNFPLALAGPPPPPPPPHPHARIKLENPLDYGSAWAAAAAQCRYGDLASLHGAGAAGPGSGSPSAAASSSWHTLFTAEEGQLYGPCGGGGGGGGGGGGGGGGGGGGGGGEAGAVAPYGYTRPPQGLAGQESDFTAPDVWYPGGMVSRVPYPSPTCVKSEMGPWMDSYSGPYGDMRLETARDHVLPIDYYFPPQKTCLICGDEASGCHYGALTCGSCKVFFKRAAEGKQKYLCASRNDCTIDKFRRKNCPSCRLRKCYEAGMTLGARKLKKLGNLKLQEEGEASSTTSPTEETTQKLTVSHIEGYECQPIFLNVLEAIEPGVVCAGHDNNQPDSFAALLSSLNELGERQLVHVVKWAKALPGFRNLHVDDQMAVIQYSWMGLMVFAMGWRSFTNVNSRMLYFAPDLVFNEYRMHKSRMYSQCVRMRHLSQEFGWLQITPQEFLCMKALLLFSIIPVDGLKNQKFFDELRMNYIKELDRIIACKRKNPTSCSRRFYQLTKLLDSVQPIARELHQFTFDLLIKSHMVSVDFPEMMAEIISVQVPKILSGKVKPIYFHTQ
T1 sequence (Q14192 1-279 partner): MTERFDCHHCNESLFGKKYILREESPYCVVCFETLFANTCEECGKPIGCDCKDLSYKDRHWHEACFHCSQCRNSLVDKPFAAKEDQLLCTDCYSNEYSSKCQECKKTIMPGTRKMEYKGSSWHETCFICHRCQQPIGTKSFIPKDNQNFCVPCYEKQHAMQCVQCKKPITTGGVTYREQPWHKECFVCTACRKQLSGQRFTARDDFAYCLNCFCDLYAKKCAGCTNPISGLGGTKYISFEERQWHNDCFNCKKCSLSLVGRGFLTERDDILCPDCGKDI
Assay: androgen receptor co-activation, MMTV-LUC or proteasin-Luc reporter, transient transfection
Assay type: cell-based
Conditions: 293 cells; androgen receptor-expression-plasmid co-transfected

C[C@]1(O)CC[C@H]2[C@@H]3CCC4=CC(=O)CCC4=C3C=C[C@@]21C [R1881, reference compound]
transactivation of the reporter gene: transactivated
